For orientation: IC50 means the concentration needed to halve the response being measured.

For one assay, the target named is human V2 receptor (Homo sapiens, UniProt P30518). Description: V2 binding assay (3H-AVP displacement, HEK-293 membranes). Also noted: expressed in transfected cells; host or cells: HEK-293 (membranes). The conditions noted are these: 1.0 μM compound; read-out: V2@1.0, % Inh. On the procedure: (§1) V1a, V1b or V2 Binding Assay
(§2) Receptor binding studies were performed using recombinant human V1a, V1b or V2 receptors. Cellular membranes were harvested from HEK-293 cells transfected to express either the V1a, V1b or V2 receptors. Compounds were evaluated for their ability to displace ^3H-arginine vasopressin (^3H-AVP; specific activity 40-87 Ci/mmol; NEN Life Sciences, Boston, Mass.). Compounds were solubilized in dimethylsulfoxide (DMSO) and diluted to working concentration of 10% DMSO with assay buffer (50 mM Tris, 5 mM MgCl2, 0.1% BSA, pH 7.5). Assay buffer was supplemented with several protease inhibitors (1 mM Pefabloc, 5 μg/ml aprotinin/leupeptin/pepstatin A, 50 μg/ml bacitracin; Sigma Chemical, St. Louis, Mo.). Non-specific binding was determined using 1.25 μM arginine vasopressin (AVP; Peninsula Labs, Belmont, Calif.). Assay reagents and test compounds were added to 96-well round bottom polypropylene plates (145 μl buffer, 5 μl compound in 10% DMSO, 25 μl buffer containing 10,000 cpm tracer, 25 μl cell membrane). After incubation for 1 hour at room temperature, the well contents were aspirated across a Unifilter GF/C plate (Packard Instrument, Downers Grove, Ill.) which had been presoaked in 0.3% polyethyleneimine to prevent peptide sticking. The wells were washed repeatedly with cold saline containing 0.05% Tween 20. The plate was then dried and 25 μl Microscint-20 cocktail (Packard Instruments) added to each well. The plates were sealed and counted on a TopCount scintillation counter (Packard Instruments) using quench correction.

For a further assay, the target named is human V1a receptor (Homo sapiens, UniProt P37288). Description: V1a binding assay (3H-AVP displacement, HEK-293 membranes). Also noted: expressed in transfected cells; host or cells: HEK-293 (membranes). The conditions noted are these: for inhibition at 1 µM: 1.0 μM compound, read-out: V1a@1.0, % Inh. The protocol:
as §1, §2

The target of another assay is T1, NPY2 receptors (Homo sapiens, UniProt P49146).
T1 construct: Cell Membranes from KAN-TS cells having NPY2 receptors; endogenous in cells; host or cells: KAN-TS cells (membranes)
T1 sequence (P49146 1-381): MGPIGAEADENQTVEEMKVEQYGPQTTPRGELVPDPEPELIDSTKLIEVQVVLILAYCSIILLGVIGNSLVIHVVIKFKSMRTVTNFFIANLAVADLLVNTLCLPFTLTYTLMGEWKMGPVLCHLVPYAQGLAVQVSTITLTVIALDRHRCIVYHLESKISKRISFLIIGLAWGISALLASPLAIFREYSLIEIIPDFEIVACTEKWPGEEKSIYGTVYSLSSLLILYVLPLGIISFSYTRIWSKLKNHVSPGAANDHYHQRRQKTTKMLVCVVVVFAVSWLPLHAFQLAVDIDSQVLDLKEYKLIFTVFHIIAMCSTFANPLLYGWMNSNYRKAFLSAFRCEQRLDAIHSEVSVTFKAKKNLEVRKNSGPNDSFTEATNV
Description: Neuropeptide Y receptor binding assay (125I-PYY, KAN-TS cell membranes). To be noted: 10 μM compound; read-out: NPY-2@10, % Inh. The protocol:
Neuropeptide Y Receptor Binding Assay
Load 96-well RIA racks with RIA vials (Sarstedt, cat. #73.1055)
Prepare membranes—use 2×15 cm confluent plates/96-well assay plate
Add 14 mls Homogenization buffer/cell pellet
Homogenize at high speed for 15 seconds
Transfer to 15 ml conical tube and spin 5′ at 4° C. at setting 3 in RT6000 centrifuge
Transfer supernatant to 30 ml Corex tube
Balance and spin 25′ at 15,000 rpm at 4° C.
Resuspend pellet in 10 mls Binding buffer
Homogenize at high speed for 15 sec.
Bring volume up to 50 mls in Binding buffer (25 mls/2×96-well plates)
Keep on ice until use or freeze in aliquots (2 plates/tube) in −70° C.
Prepare ^125I-PYY (for 2×96-well compound plates)
Dilute 50 uCi ^125I-PYY in 1 ml H2O
Add 0.4 ml 10% BSA to 20 ml Binding buffer
Add 150 μl ^125I-PYY, mix well
NSB (1 μM PYY final conc.): 40 μl PYY (100 μM stock)+60 μl 30% DMSO in HEPES=40 μM PYY—add 5 μl/well
Total Binding: Add 5 μl/well of Compound Diluent
Add 5 μl compound (final conc. @10 μM)
Incubate at R.T. for 1 hr.
Spin plates for 10′ at setting 9 in RT6000 centrifuge
Aspirate supernatant from tubes, add 300 μl PBS and aspirate again.
After plates are washed and aspirated, put individual tubes in 12×75 mm polypropylene carrier tubes. Count on gamma counter.

For another assay, the target named is T2, human V1b receptor (Homo sapiens, UniProt P47901).
T2 sequence (P47901 1-424): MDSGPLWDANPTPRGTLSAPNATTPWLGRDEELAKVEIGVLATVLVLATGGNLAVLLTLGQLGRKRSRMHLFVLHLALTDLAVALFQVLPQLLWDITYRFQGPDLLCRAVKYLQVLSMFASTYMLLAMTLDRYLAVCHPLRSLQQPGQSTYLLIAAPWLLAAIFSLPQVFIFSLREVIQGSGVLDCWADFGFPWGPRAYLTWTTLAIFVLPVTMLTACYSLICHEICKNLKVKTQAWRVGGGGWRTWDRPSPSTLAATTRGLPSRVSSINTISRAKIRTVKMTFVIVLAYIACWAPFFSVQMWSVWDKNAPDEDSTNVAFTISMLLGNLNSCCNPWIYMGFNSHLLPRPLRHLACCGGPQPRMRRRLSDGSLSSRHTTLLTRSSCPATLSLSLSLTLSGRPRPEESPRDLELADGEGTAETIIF
Nature of the assay: V1b binding assay (3H-AVP displacement, HEK-293 membranes). Also on record: expressed in transfected cells; host or cells: HEK-293 (membranes). The conditions noted are these: for inhibition at 10 µM: 10 μM compound, read-out: V1b % Inh @10; for inhibition at 1 µM: 1.0 μM compound, read-out: V1b@1.0, % Inh. On the procedure:
as §1, §2

Chain of human V1a receptor (P37288 whole entry): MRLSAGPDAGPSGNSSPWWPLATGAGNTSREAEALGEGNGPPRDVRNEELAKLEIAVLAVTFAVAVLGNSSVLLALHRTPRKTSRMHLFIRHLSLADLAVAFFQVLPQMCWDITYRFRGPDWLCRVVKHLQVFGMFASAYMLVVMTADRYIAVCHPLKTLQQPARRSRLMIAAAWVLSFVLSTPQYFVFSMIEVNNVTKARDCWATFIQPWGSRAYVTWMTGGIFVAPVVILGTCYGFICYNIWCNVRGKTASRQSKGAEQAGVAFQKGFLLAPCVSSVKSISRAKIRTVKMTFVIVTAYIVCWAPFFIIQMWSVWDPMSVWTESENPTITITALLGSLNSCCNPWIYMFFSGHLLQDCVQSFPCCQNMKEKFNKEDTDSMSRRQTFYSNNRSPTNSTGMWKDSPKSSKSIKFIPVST
Chain of human V2 receptor (P30518 whole entry): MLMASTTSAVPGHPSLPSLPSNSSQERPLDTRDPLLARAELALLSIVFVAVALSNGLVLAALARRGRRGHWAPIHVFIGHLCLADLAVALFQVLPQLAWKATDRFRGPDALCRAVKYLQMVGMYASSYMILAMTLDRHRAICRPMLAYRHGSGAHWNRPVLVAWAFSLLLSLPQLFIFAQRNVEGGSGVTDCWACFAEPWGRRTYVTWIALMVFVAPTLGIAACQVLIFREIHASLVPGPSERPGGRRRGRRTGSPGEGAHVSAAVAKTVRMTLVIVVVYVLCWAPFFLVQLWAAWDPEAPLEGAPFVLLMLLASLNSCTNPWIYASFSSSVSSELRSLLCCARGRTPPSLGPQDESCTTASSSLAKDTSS

In the case of `CC(=O)NCCNC(=O)C(Cc1ccccc1)NC(=S)N1CCC(n2c(=O)[nH]c3ccccc32)CC1` (centres unmarked) [Compound 44], the inhibition at 1 µM at human V2 receptor was determined as 2%; on human V1a receptor, 37%. The inhibition at 10 µM turned out to be 9% at NPY2 receptors and 24% on human V1b receptor.
Consider `CCN(CC)CCn1c(=O)n(C2CCN(C(=O)NC(c3ccccc3)c3ccccc3)CC2)c2ccccc21` [Compound 91, 1-(N1-Piperidinocarbonyldiphenylmethylamino-4-yl)-3-(2-N,N-diethyaminoethyl)benzimidazol-2-one], for which the inhibition at 1 µM stood at 0% at human V2 receptor, 64% at human V1a receptor and 24% on human V1b receptor. The inhibition at 10 µM at NPY2 receptors worked out at 56%.
`CC(=O)NCCCn1c(=O)n(C2CCN(C(=S)NC(c3ccccc3)c3ccccc3)CC2)c2ccccc21` [Compound 76, 1-[(N1-Piperidinocarbothioyldiphenylmethylamino)-4-yl]-3-(3-acetamidopropyl)-1,3-dihydrobenzimidazol-2-one]: at human V2 receptor, the inhibition at 1 µM is 0%. The same compound displayed an IC50 on human V1a receptor of 0.25 µM. The values for the inhibition at 10 µM at NPY2 receptors and at human V1b receptor were 41% and 25%, respectively.
For the compound `CCc1ccc(CCNC(=S)N2CCC(n3c(=O)[nH]c4ccccc43)CC2)cc1` [Compound 21], the values for the inhibition at 1 µM at human V2 receptor and at human V1a receptor were 19% and 31%, respectively. In addition, the inhibition at 10 µM at NPY2 receptors came out at 13%.
Take `C[C@H](NC(=S)N1CCC(n2c(=O)n(CCCN3CCCCC3)c3ccccc32)CC1)c1ccccc1` [Compound 116, 1-[(N1-piperidinocarbonthioyl-R-(−)-alpha-methylbenzylamino)-4-yl]-3-(3-N-piperidinylpropyl)-1,3-dihydrobenzimidazol-2-one]: the inhibition at 1 µM on human V2 receptor is 18%; at human V1a receptor, 85%; on human V1b receptor it was 47%. In addition, at NPY2 receptors, the inhibition at 10 µM came out at 25%.
As for `O=c1n(Cc2ccccc2)c2ccccc2n1C1CCN(C(=S)NC(c2ccccc2)c2ccccc2)CC1` [Compound 37, 1-(N1-Piperidinocarbothioyldiphenylmethylamino-4-yl)-3-benzyl-1,3-dihydrobenzimidazol benzimidazol-2-one], the values for the inhibition at 1 µM on human V2 receptor and on human V1a receptor were 2% and 5%, respectively. The inhibition at 10 µM was 0% at NPY2 receptors and 8% on human V1b receptor.
`O=C(O)C(Cc1ccccc1)NC(=S)N1CCC(n2c(=O)[nH]c3ccccc32)CC1` (centres unmarked) [Compound 41]: the values for the inhibition at 1 µM at human V2 receptor and on human V1a receptor were 0% and 8%, respectively. In addition, on NPY2 receptors, the inhibition at 10 µM came out at 11%.
In the case of `Cn1c(=O)n(C2CCN(C(=S)NC(c3ccccc3)c3ccccc3)CC2)c2ccccc21` [Compound 10, 3-Methyl-1-[(N1-Piperidinocarbothioyldiphenylmethylamino)-4-yl]-1,3-dihydro-benzimidazol-2-one], the inhibition at 1 µM on human V2 receptor stood at 51%. This compound registered an IC50 on human V1a receptor of 0.38 µM. In addition, the inhibition at 10 µM at NPY2 receptors worked out at 34%.
With `COC(=O)C(Cc1ccccc1)NC(=S)N1CCC(n2c(=O)n(CCCNC(=O)OCc3ccccc3)c3ccccc32)CC1` (centres unmarked) [Compound 52], on human V1a receptor, the IC50 was 0.58 µM. In addition, the values for the inhibition at 10 µM at NPY2 receptors and at human V1b receptor were 11% and 13%, respectively.
With `O=c1n(CCCN2CCCCC2)c2ccccc2n1C1CCN(C(=S)NC(c2ccccc2)(c2ccccc2)c2ccccc2)CC1` [Compound 126, 1-[(N1-piperidinocarbothioyltriphenylmethylamino)-4-yl]-3-(3-N-piperidinylpropyl)-1,3-dihydrobenzimidazol-2-one], the inhibition at 1 µM on human V2 receptor, at human V1a receptor and at human V1b receptor was 0% each time.
Turning to `CC(CN1CCCC1)Cn1c(=O)n(C2CCN(C(=S)NC(c3ccccc3)c3ccccc3)CC2)c2ccccc21` (centres unmarked) [Compound 148], the inhibition at 1 µM on human V2 receptor worked out at 1%; at human V1b receptor it was 40%. The IC50 at human V1a receptor came out at 0.053 µM.
For `O=c1n(CCCN2CCCCC2)c2ccccc2n1C1CCN(C(=S)NCc2ccco2)CC1` [Compound 158], the inhibition at 1 µM at human V2 receptor stood at 42%; at human V1a receptor it was 55%; on human V1b receptor it was 18%.
For `O=c1n(CCCN2CCCCCCC2)c2ccccc2n1C1CCN(C(=S)NC(c2ccccc2)c2ccccc2)CC1` [Compound 142], the inhibition at 1 µM at human V2 receptor is 4%; on human V1b receptor, 56%. In addition, the IC50 on human V1a receptor stood at 0.068 µM.
As for `O=c1n(CCN2CCOCC2)c2ccccc2n1C1CCN(C(=S)NC(c2ccccc2)c2ccccc2)CC1` [Compound 19, 1-[(N1-Piperidinocarbothioyldiphenylmethylamino)-4-yl]-3-(2-N-morpholinoethyl)-1,3-dihydro-benzimidazol-2-one], the inhibition at 1 µM at human V2 receptor came to 42%. In addition, the IC50 on human V1a receptor stood at 0.27 µM. The inhibition at 10 µM on NPY2 receptors is 69%.
For the compound `CN1CCN(C(=O)C(Cc2ccccc2)NC(=S)N2CCC(n3c(=O)[nH]c4ccccc43)CC2)CC1` (centres unmarked) [Compound 45], the inhibition at 1 µM was 9% on human V2 receptor and 54% on human V1a receptor. Besides, the inhibition at 10 µM on NPY2 receptors amounted to 15%.
`O=c1n(CCCN2CCCCCC2)c2ccccc2n1C1CCN(C(=S)NC(c2ccccc2)c2ccccc2)CC1` [Compound 141]: the inhibition at 1 µM was determined as 0% on human V2 receptor, 83% on human V1a receptor and 29% on human V1b receptor.
Consider `O=c1n(CCCN2CCCCC2)c2cc(C(F)(F)F)ccc2n1C1CCN(C(=S)NC(c2ccccc2)c2ccccc2)CC1` [Compound 121], for which the inhibition at 1 µM on human V2 receptor amounted to 3%; at human V1b receptor, 39%. For the same compound, the IC50 on human V1a receptor was 0.33 µM.
`O=c1n(CCCN2CCCCC2)c2ccccc2n1C1CCN(C(=S)NCc2cccnc2)CC1` [Compound 168]: the inhibition at 1 µM at human V2 receptor amounted to 2%; at human V1a receptor, 62%; on human V1b receptor it was 25%.
The matching figures for `O=c1n(CCCN2CCCCC2)c2ccccc2n1C1CCN(C(=S)Nc2ccc(N3CCOCC3)cc2)CC1` [Compound 153]: 0%, 0% and 0%.

For the origin of these results see patent US6653478B2, “Substituted benzimidazol-2-ones as vasopressin receptor antagonists and neuropeptide Y modulators” (Ortho-McNeil Pharmaceutical, Inc., priority 2000, dated 2003).
